One test concerns the target T1, KRAS (G12C) (Homo sapiens, UniProt P01116, G12C).
T1 construct: purchased BPS Bioscience 79859
Nature of the test: KRAS G12C Nucleotide Exchange Assay (fixed GTP concentration). In kind it is biochemical. The procedure:
A KRAS (G12C) Nucleotide Exchange Assay kit was used to evaluate compound antagonistic binding. The assay kit (BPS Bioscience. Catalog #79859) utilizes KRAS (G12C) labeled with BODIPY-GDP to determine if compounds can affect the nucleotide exchange (GDP to GTP) in KRAS signaling, Compounds were typically characterized using both protocols: fixed GTP concentrations and fixed inhibitor concentrations.
All reagents were prepared following manufacturer's protocol. 5 μL BODIPY-GDP and 10 μL of KRAS buffer were added to each well. A 3-fold serial dilution of compound in 5% DMSO was prepared. Typically, compounds were tested in the range of 0 μM to 50 μM, but the range could be modified depending on the characterization needs. 5 μL of diluted compound was added to the wells and the plate was centrifuged briefly to ensure all components were mixed before incubation at ambient temperature. After incubation for 2 hours, 10 μM GTP and 25 mM EDTA were mixed at a 1:1 ratio and 5 μL was added to the wells. The plate was then incubated for 1 hour at ambient temperature. After incubation, fluorescence was measured at […].
Data was analyzed by plotting fluorescence vs GTP concentration for control wells and compound wells.

Test [1] relates to human ERK1 dually phosphorylated at T202/Y204 and ERK2. The experiment in a line: Phosphorylated ERK1/ERK2 ELISA. In kind it is cell-based. The note with it: phosphorylated ERK in cell lysates after treatment with compounds; sandwich ELISA; cell line not stated. The method, then: An ERK phosphorylation ELISA kit was used to characterize compounds for KRAS-based cell activity. The sandwich ELISA (RnD Systems. Catalog #DYC1018B) measures human ERK1 that is dually phosphorylated at T202/Y204 and ERK2. Cell lysates from cells before and after treatment with compounds were prepared using kit manufacturer protocols.
All reagents were prepared following the kit's protocol. The wells of a 96-well microtiter plate were coated with 100 μL of 8.0 μg/mL of capture antibody in PBS. The plate was sealed and left to incubate overnight at ambient temperature. After incubation, the wells were washed with 400 μL of Wash Buffer for a total of 3 washes. Wells were then blocked by adding 300 μL of Block Buffer to each well and incubated at ambient temperature for 1-2 hours. After removal of the Block Buffer by aspirating and washing, 100 μL of standards and samples were added to the plate in duplicates and incubated for 2 hours at ambient temperature. The aspiration and wash steps were repeated to remove unbound standard and samples and 100 μL of 400 ng/mL detection antibody was applied to each well. After 2 hours at ambient temperature, detection antibody was removed by washing and 100 μL of Streptavidin-HRP was added to each well. Incubation of Streptavidin-HRP was at ambient temperature for 20 minutes, after which Streptavidin-HRP was removed by washing, 100 μL of Substrate Solution was added to each well and incubated for 20 minutes before 50 μL of Stop Solution was added to each well.
The optical density of each well was immediately analyzed at 450 nm with a wavelength correction at 540 nm. The standards were plotted by averaging the optical density for each replicate and fitted with a four-parameter logistic curve fit. Concentrations of phosphorylated ERK in cell lysate samples were determined by extrapolation from the standard curve and then adjusted for any dilution factors.
On the technique in general: An ELISA detects its analyte on a solid surface through an enzyme-linked reagent.

IC50 data for 1 compound are collected here from patent US20240252694A1, “CONJUGATES COMPRISING COVALENT BINDERS FOR TARGETING INTRACELLULAR KRAS G12C PROTEINS” (RayzeBio, Inc., priority 2021, published 2024).

T1 sequence (P01116 1-188 isoform P01116-2 G12C): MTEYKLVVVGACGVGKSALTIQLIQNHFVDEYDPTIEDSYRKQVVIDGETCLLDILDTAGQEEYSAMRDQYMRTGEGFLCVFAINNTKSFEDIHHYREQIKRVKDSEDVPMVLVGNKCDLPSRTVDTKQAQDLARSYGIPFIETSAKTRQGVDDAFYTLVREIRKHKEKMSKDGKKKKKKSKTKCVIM

In general, IC50 refers to the point on the concentration scale where inhibition reaches its midpoint. On to `C=CC(=O)N1CCN(c2nc(OC[C@@H]3CCCN3CCCCCCNC(=O)CN3CCN4CCN5CCN(CC3)CC(=O)[O][Lu]([O]C(=O)C4)[O]C(=O)C5)nc3c2CCN(c2cccc4cccc(Cl)c24)C3)C[C@@H]1CC#N` [Lu-CHL-001, N-[6-[(2S)-2-[[7-(8-chloro-1-naphthyl)-4-[(3 S)-3-(cyanomethyl)-4-prop-2-enoyl-piperazin-1-yl]-6,8-dihydro-5H-pyrido[3,4-d]pyrimidin-2-yl]oxymethyl]pyrrolidin-1-yl]hexyl]-2-(3,16,19-trioxo-2,17,18-trioxa-5,8,11,14-tetraza-1λ3-lutetatricyclo[9,6,3,25,14]docosan-8-yl)acetamide], for which the IC50 (at KRAS (G12C); in test [1]) was 1 to 10 µM in each case.
